Patent publication US20240409609A1, “REVERSIBLE LYSINE COVALENT MODIFIERS OF EGFR AND USES THEREOF” (Terremoto Biosciences, Inc., priority 2021, published 2024)

Assays:
[1] = molecular target: WT-EGFR (Homo sapiens (Human), UniProt P00533); assay: EGFR jump dilution study; assay type: biochemical; details: 100-fold dilution, 1 mM ATP, up to 10 hrs
Method: Enzyme:inhibitor complexes were pre-formed at EGFR 100Y^1 final reaction concentration by incubating enzyme with an inhibitor at the greater concentration of either 10Y^1 inhibitor IC50, or 1:1.2 stoichiometry with enzyme.
After incubating enzyme:inhibitor complexes on ice for 30 min, reactions were diluted in two steps 100-fold into reaction buffer supplemented with 1 mM ATP, and 20 uM AssayQuant substrate (AQT0734), with final reaction volumes of 20 μL in a 384 well reaction plate. Wells were read immediately and at timepoints post-dilution for up to 10 hrs in a PerkinElmer Ensight plate reader, according to the AssayQuant manufacturer's instructions.
Data processing: Raw fluorescence signal was first background corrected by subtracting the fluorescence intensity of wells containing only the AssayQuant substrate, and no enzyme. Enzyme activity was normalized relative DMSO controls for each enzyme at each timepoint. In this way, DMSO-treated wells appear as a constant normalized activity=1 throughout the assay.
The X-axis of each of the three graphs represents the time after dilution that the enzyme activity was measured, with t=0 representing the time of jump dilution. The Y-axis of each graph provides the enzymatic activity at each time point. Enzymatic activity is normalized to the DMSO-treated control samples (i.e., the same enzyme variant treated with DMSO instead of compound). As such, a DMSO-normalized value of 1.0 represents full enzymatic activity (i.e., equivalent to the DMSO-treated control), while a value below 1.0 represents reduced activity relative to control (i.e., some degree of enzyme inhibition at the time measured). The data points over time (e.g., from 0 to 600 minutes post-dilution) are therefore indicative of the off-rate for the compound. […] Thus, the jump-dilution data provided a qualitative estimate of the off-rate kinetics for each compound against the panel of EGFR variants. Experiments were run in duplicate, resulting in two different data sets for each graph.

[2] = molecular target: EGFR WT (Homo sapiens (Human), UniProt P00533); assay: EGFR biochemical assay (AssayQuant chelation-enhanced fluorescence); details: 30 min preincubation, reaction time 360 min
[3] = molecular target: EGFR WT in Ba/F3 cells (Homo sapiens (Human), UniProt P00533); assay: Ba/F3 pEGFR assay (AlphaLISA p-EGFR Tyr1068); assay type: cell-based; details: 2 hrs treatment, media supplemented with EGF
Method: Cellular activity was determined using the Ba/F3 system for studying oncogenic mutant kinases (Warmuth 2007). […] Transduced cells were maintained in RPMI 1640 with 10% FBS. EGFR WT transduced cells were grown in media supplemented with EGF. To assay cellular activity of inhibitors, cells were treated with inhibitor from 1000X DMSO stock dilutions and incubated for 2 hrs at 37° C. 5% CO2. Subsequently, p-EGFR (Tyr1068) was quantified using a commercial sandwich immunoassay (PerkinElmer AlphaLISA SureFire assay; ALSU-PEGFR) according to the manufacturer's instructions. […] Curr Opin Oncol 19, 55-60 (2007), which is incorporated herein in its entirety.

Sequence of EGFR WT in Ba/F3 cells (P00533 25-1210): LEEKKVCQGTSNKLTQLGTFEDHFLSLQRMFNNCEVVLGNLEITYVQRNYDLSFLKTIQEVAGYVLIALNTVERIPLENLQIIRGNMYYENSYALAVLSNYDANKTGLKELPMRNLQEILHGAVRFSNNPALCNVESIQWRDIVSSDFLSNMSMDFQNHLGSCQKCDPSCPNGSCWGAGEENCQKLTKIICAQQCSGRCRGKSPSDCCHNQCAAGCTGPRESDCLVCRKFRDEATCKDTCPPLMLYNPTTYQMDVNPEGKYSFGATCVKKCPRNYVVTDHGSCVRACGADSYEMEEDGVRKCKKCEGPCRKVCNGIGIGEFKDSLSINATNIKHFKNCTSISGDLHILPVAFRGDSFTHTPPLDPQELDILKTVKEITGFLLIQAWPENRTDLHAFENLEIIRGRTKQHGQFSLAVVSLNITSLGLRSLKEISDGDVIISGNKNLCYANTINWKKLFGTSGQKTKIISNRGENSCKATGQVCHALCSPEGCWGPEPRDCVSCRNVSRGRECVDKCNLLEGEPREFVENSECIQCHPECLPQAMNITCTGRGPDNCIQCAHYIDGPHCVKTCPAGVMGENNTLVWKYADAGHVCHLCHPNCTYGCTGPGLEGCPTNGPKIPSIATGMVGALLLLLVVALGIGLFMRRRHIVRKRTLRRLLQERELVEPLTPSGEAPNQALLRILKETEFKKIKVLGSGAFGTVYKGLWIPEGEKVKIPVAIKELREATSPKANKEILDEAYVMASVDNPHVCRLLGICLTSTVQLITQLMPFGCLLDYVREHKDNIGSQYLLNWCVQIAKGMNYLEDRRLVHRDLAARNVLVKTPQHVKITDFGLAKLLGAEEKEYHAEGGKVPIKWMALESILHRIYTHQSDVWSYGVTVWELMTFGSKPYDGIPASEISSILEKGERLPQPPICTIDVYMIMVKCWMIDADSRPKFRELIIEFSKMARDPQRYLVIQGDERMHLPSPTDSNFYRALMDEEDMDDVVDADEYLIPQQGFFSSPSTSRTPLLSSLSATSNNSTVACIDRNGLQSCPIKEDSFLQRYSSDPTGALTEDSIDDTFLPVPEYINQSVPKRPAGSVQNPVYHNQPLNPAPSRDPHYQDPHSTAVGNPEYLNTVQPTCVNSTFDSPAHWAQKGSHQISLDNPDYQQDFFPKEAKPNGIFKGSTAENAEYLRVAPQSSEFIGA
Sequence of EGFR WT (P00533 668-1210): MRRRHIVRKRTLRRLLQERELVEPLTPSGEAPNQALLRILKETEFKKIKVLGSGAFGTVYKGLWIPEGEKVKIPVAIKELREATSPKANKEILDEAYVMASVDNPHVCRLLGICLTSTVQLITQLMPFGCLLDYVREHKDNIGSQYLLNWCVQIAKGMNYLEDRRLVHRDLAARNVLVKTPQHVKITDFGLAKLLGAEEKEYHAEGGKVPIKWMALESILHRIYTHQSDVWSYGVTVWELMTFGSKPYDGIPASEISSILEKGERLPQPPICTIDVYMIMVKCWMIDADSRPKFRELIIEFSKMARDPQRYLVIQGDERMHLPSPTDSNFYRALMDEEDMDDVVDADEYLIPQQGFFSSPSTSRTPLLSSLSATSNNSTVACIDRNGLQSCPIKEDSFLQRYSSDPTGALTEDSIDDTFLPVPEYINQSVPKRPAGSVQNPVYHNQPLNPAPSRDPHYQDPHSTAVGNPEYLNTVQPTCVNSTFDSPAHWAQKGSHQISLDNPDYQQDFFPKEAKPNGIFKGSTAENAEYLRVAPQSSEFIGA
Sequence of WT-EGFR (P00533 668-1210): as above

Row | off-rate kinetics after jump dilution [1] | IC50 [2] [µM] | IC50 [3] [µM] | Compound
1 | slow-off kinetics | – | – | COc1cc(N2CCC(N3CCN(C)CC3)CC2)ccc1Nc1ncc(-c2ccc(O)c(C=O)c2)c(Nc2ccccc2)n1 [Compound 3]
2 | – | 0.0105 | > 10 | CC(C)(O)Cn1/c(=N/C(=O)c2ccnc(Oc3cccc(O)c3C=O)c2)[nH]c2ccccc21 [Compound 121]
3 | – | 0.081 | > 10 | CN1CCN(Cc2ccc3[nH]/c(=N\C(=O)c4cncc(Oc5cccc(O)c5C=O)n4)n(CC(C)(C)O)c3c2)CC1 [Compound 108]
4 | slow-off kinetics | > 1 | – | COc1cc(N2CCC(N3CCN(C)CC3)CC2)ccc1Nc1ncc(Cl)c(Nc2ccccc2-c2cccc(C=O)c2O)n1 [Compound 6]
5 | – | > 1 | > 10 | CC(C)c1ccc(N2CC(CS(C)(=O)=O)C2)c2cnc(Nc3ccnc(Oc4cccc(O)c4C=O)n3)cc12 [Compound 48]
6 | – | 0.00881 | > 10 | CC(C)(O)Cn1/c(=N/C(=O)c2ccnc(C#Cc3cccc(O)c3C=O)c2)[nH]c2ccc(CN3CCOCC3)cc21 [Compound 78]
7 | – | 0.221 | > 10 | O=Cc1c(O)cccc1Oc1cc(C(=O)/N=c2\[nH]c3ccccc3n2CCN2CCOCC2)ccn1 [Compound 123]
8 | – | 0.529 | 6.43 | CC(C)(O)Cn1/c(=N/C(=O)c2ccnc(-c3cccc(-c4cccc(O)c4C=O)c3)c2)[nH]c2ccccc21 [Compound 130]
9 | – | 0.00588 | 1.9 | CN1CCN(Cc2ccc3[nH]/c(=N\C(=O)c4cc(C#N)cc(Oc5cccc(O)c5C=O)c4)n(CC(C)(C)O)c3c2)CC1 [Compound 51]
10 | – | 0.0679 | > 10 | CN1CCN(Cc2ccc3[nH]/c(=N\C(=O)c4ccnc(Oc5cccc(O)c5C=O)c4F)n(CC(C)(C)O)c3c2)CC1 [Compound 82]
11 | – | > 1 | > 10 | CC(C)(O)Cn1/c(=N/C(=O)c2ccnc(N3CCN(c4cccc(O)c4C=O)CC3)c2)[nH]c2ccccc21 [Compound 131]
12 | – | 0.00875 | 3.23 | CC(C)(O)Cn1/c(=N/C(=O)c2ccnc(Oc3cccc(O)c3C=O)c2)[nH]c2ccc(N3CCOCC3)cc21 [Compound 74]
13 | – | 0.197 | 6.85 | CC(C)c1ccc(N2CC(CS(C)(=O)=O)C2)c2cnc(Nc3ccnc(-n4cc(-c5cccc(O)c5C=O)cn4)n3)cc12 [Compound 44]
14 | – | 0.00603 | 1.77 | CN1CCN(Cc2ccc3[nH]/c(=N\C(=O)c4ccnc(C#Cc5c(F)ccc(O)c5C=O)c4)n(CC(C)(C)O)c3c2)CC1 [Compound 57]
15 | – | 0.00842 | 4.86 | CN1CCN(Cc2ccc3[nH]/c(=N\C(=O)c4cccc(Oc5cccc(O)c5C=O)c4)n(CC(C)(C)O)c3c2)CC1 [Compound 52]
16 | – | 0.0146 | 3 | COCCN1CCN(Cc2ccc3[nH]/c(=N\C(=O)c4ccnc(Oc5cccc(O)c5C=O)c4)n(CC(C)(C)O)c3c2)CC1 [Compound 75]
17 | – | 0.0801 | 5.2 | CC(C)(O)Cn1/c(=N/C(=O)c2ccnc(CCc3cccc(O)c3C=O)c2)[nH]c2ccccc21 [Compound 135]
18 | – | 0.0101 | 3.55 | CC(C)Cn1/c(=N/C(=O)c2ccnc(Oc3cccc(O)c3C=O)c2)[nH]c2ccc(CN3CCN(C)CC3)cc21 [Compound 65]

Row | off-rate kinetics after jump dilution [1] | IC50 [2] [µM] | IC50 [3] [µM] | Compound
19 | – | 0.0493 | > 10 | CN1CCN(C2CCN(c3ccc4c(c3)[nH]/c(=N\C(=O)c3ccnc(Oc5cccc(O)c5C=O)c3)n4CC(C)(C)O)CC2)CC1 [Compound 91]
20 | – | 0.028 | > 10 | CN1CCN(Cc2ccc3[nH]/c(=N\C(=O)c4cc(C=O)nc(Oc5cccc(O)c5C=O)c4)n(CC(C)(C)O)c3c2)CC1 [Compound 81]
21 | – | 0.0109 | 4.77 | CC(C)(O)Cn1/c(=N/C(=O)c2ccnc(Oc3cccc(O)c3C=O)c2)[nH]c2ccc(CN3CCC(C(C)(C)O)CC3)cc21 [Compound 80]
22 | – | 0.0135 | 2.37 | CC(C)(O)Cn1/c(=N/C(=O)c2ccnc(Oc3cccc(O)c3C=O)c2)[nH]c2ccc(CN3CCOCC3)cc21 [Compound 76]
23 | – | 0.2 | 2.57 | CN1CCN(Cc2ccc3[nH]/c(=N\C(=O)c4ccnc(C#Cc5cccc(NC(=O)C(F)(F)F)c5C=O)c4)n(CC(C)(C)O)c3c2)CC1 [Compound 101]
24 | – | 0.115 | 7.95 | CC(=O)Nc1cccc(C#Cc2cc(C(=O)/N=c3\[nH]c4ccc(CN5CCN(C)CC5)cc4n3CC(C)(C)O)cc(C)n2)c1C=O [Compound 97]
25 | – | 0.042 | 0.267 | CN1CCN(Cc2ccc3[nH]/c(=N\C(=O)c4ccnc(C#Cc5cccc(NC(=O)C6CC6)c5C=O)c4)n(CC(C)(C)O)c3c2)CC1 [Compound 87]
26 | – | 0.0521 | > 8.83 | CN1CCN(Cc2ccc3[nH]/c(=N\C(=O)c4ccnc(-n5cc(-c6cccc(O)c6C=O)cn5)c4)n(CC(C)(C)O)c3c2)CC1 [Compound 85]
27 | – | 0.094 | > 10 | COc1cc(N2CCC(N3CCN(C)CC3)CC2)ccc1Nc1ncc(-c2cc(C=O)c(O)cc2OC)c(Nc2ccccc2)n1 [Compound 13]
28 | – | 0.00824 | 5.26 | O=Cc1c(O)cccc1Oc1cc(C(=O)/N=c2\[nH]c3ccccc3n2[C@H]2CC[C@@H](O)CC2)ccn1 [Compound 122]
29 | – | 0.296 | 9.06 | CN1CCN(Cc2ccc3[nH]/c(=N\C(=O)c4ccnc(Oc5ccccc5C=O)c4)n(CC(C)(C)O)c3c2)CC1 [Compound 92]
30 | slow-off kinetics | – | – | COc1cc(N(C)CCN(C)C)c(NC(C)=O)cc1Nc1nccc(-c2cn(Cc3cccc(C=O)c3O)c3ccccc23)n1 [Compound 7]
31 | – | 0.0101 | 5 | CN1CCN(Cc2ccc3[nH]/c(=N\C(=O)c4ccc(Oc5cccc(O)c5C=O)s4)n(CC(C)(C)O)c3c2)CC1 [Compound 73]
32 | – | > 1 | > 10 | CC(C)(O)Cn1/c(=N/C(=O)c2ccnc(-c3ccc(-c4cccc(O)c4C=O)cc3)c2)[nH]c2ccccc21 [Compound 132]
33 | – | 0.00973 | 3.47 | CN1CCN(Cc2ccc3[nH]/c(=N\C(=O)c4ccnc(Oc5c(F)ccc(O)c5C=O)c4)n(CC(C)(C)O)c3c2)CC1 [Compound 68]
34 | – | 0.108 | > 9.97 | CN1CCN(Cc2ccc3[nH]/c(=N\C(=O)c4ccnc(-c5cnn(-c6cccc(O)c6C=O)c5)c4)n(CC(C)(C)O)c3c2)CC1 [Compound 88]
35 | – | > 1 | > 10 | CC(C)(O)Cn1/c(=N/C(=O)c2ccnc(Nc3cccc(C=O)c3O)c2)[nH]c2ccccc21 [Compound 134]
36 | – | 0.00533 | 1.43 | CN1CCN(Cc2ccc3[nH]/c(=N\C(=O)c4cncc(Oc5cccc(O)c5C=O)c4)n(CC(C)(C)O)c3c2)CC1 [Compound 55]

Row | Compound | off-rate kinetics after jump dilution [1] | IC50 [2] [µM] | IC50 [3] [µM]
37 | C#CCNC(=O)c1cc(Nc2cc(C3CC3)[nH]n2)nc(N2CCN(Cc3ccc(C=O)c(O)c3)CC2)n1 [Compound 1] | enzymatic activity quickly returned following dilution | – | –
